# According to patent US20100298302A1, “NOVEL PROTEIN KINASE MODULATORS” (priority 2009, published 2010):
# Where two headings read alike, the source gives them in different places.
# Columns and labels:
# recombinant PIM-1 = recombinant PIM-1 (Homo sapiens, UniProt P11309); experiment: PIM-1 kinase assay; type: biochemical; conditions: for inhibition at 0.5 µM: 500 nM compound, read-out: PIM1: % inh 500 nM
# Method: The following procedure was used to assay the PIM-1 kinase activity of compounds of the invention. Other methods for assaying PIM-1 and other PIM kinases, as well as methods to assay for activity against various kinases known in the art.
# In a final reaction volume of 50 ul, recombinant PIM-1 (1 ng) was incubated with 12 mM MOPS pH 7.0, 0.4 mM EDTA, glycerol 1%, brij 35 0.002%, 2-mercaptoethanol 0.02%, BSA 0.2 mg/ml, 100 uM KKRNRTLTK, 10 mM MgAcetate, 15 uM ATP, [γ-^33P-ATP] (specific activity approx. 500 cpm/pmol), DMSO 4% and test inhibitor compound at the required concentration. The reaction was initiated by the addition of the Magnesium ATP mixture. After 40 min incubation at 23° C., the reactions were quenched by the addition of 100 ul 0.75% Phosphoric acid, and the labeled peptide collected by filtration through a phosphocellulose filter plate. The plate was washed 4 times with 0.075% phosphoric acid (100 ul per well) and then, after the addition of scintillation fluid (20 ul per well), the counts were measured by a scintillation counter.
# [1] = tested on: K-562 human chronic myelogenous leukemia (CML) cells; experiment: Alamar Blue cell proliferation assay, K-562; type: cell-based; conditions: K562, Table 4
# Method: (§1) A representative cell-proliferation assay protocol using Alamar Blue dye (stored at 4° C., use 20 ul per well) is described hereafter.
# (§2) a. Split and trypsinize cells.
# (§3) b. Count cells using hemocytometer.
# (§4) c. Plate 4,000-5,000 cells per well in 100 μl of medium and seed into a 96-well plate according to the following plate layout. Add cell culture medium only to wells B10 to B12. Wells B1 to B9 have cells but no compound added.
# (§5) d. Add 100 μl of 2× drug dilution to each well in a concentration shown in the plate layout above. At the same time, add 100 μl of media into the control wells (wells B10 to B12). Total volume is 200 μl/well.
# (§6) e. Incubate four (4) days at 37° C., 5% CO2 in a humidified incubator.
# (§7) f. Add 20 μl Alamar Blue reagent to each well.
# (§8) g. Incubate for four (4) hours at 37° C., 5% CO2 in a humidified incubator.
# (§9) h. Record fluorescence at an excitation wavelength of 544 nm and emission wavelength of 590 nm using a microplate reader.
# (§10) In the assays, cells are cultured with a test compound for approximately four days, the dye is then added to the cells and fluorescence of […] dye is detected after approximately four hours. Different types of cells can be utilized in the assays (e.g., HCT-116 human colorectal carcinoma cells, PC-3 human prostatic cancer cells, MDA-MB231 human breast cancer cells, K-562 human chronic myelogenous leukemia (CML) cells, MiaPaca human pancreatic carcinoma cells, MV-4 human acute myeloid leukemia cells, and BxPC3 human pancreatic adenocarcinoma cells).
# MV-4-11 = experiment: Alamar Blue cell proliferation assay, MV-4-11; type: cell-based; conditions: Homo sapiens, MV4-11; Table 4
# Method: as §1, §2, §3, §4, §5, §6, §7, §8, §9, §10
# recombinant human CK2 = target: T1, recombinant human CK2 (Homo sapiens, UniProt P68400); experiment: cell-free CK2 assay; type: biochemical
# T1 construct: purchased Upstate
# Method: Modulatory activity of compounds described herein was assessed in vitro in cell-free CK2 assays by the following method.
# Test compounds in aqueous solution were added at a volume of 10 microliters, to a reaction mixture comprising 10 microliters Assay Dilution Buffer (ADB; 20 mM MOPS, pH 7.2, 25 mM beta-glycerolphosphate, 5 mM EGTA, 1 mM sodium orthovanadate and 1 mM dithiothreitol), 10 microliters of substrate peptide (RRRDDDSDDD, dissolved in ADB at a concentration of 1 mM), 10 microliters of recombinant human CK2 (25 ng dissolved in ADB; Upstate). Reactions were initiated by the addition of 10 microliters of ATP Solution (90% 75 mM MgCl2, 75 micromolar ATP dissolved in ADB; 10% [γ-^33P]ATP (stock 1 mCi/100 μl; 3000 Ci/mmol (Perkin Elmer) and maintained for 10 minutes at 30 degrees C. The reactions were quenched with 100 microliters of 0.75% phosphoric acid, then transferred to and filtered through a phosphocellulose filter plate (Millipore). After washing each well 5 times with 0.75% phosphoric acid, the plate was dried under vacuum for 5 min and, following the addition of 15 ul of scintilation fluid to each well, the residual radioactivity was measured using a Wallac luminescence counter.
# recombinant human PIM2 = recombinant human PIM2 (Homo sapiens, UniProt Q9P1W9); experiment: PIM-2 kinase assay; type: biochemical
# Method: Test compounds dissolved and diluted in DMSO (2 μl) were added to a reaction mixture comprising 10 μl of 5× Reaction Buffer (40 mM MOPS pH 7.0, 5 mM EDTA), 10 μl of recombinant human PIM2 solution (4 ng PIM-2 dissolved in dilution buffer (20 mM MOPS pH 7.0; EDTA 1 mM; 5% Glycerol; 0.01% Brij 35; […]; […] 2-mercaptoethanol; 1 mg/ml BSA)) and 8 ul of water. Reactions were initiated by the addition of 10 ul of ATP Solution ([…] (15 mM MgCl2; 75 uM ATP) 1% ([γ-33P]ATP: Stock 1 mCi/100 μl; 3000 Ci/mmol (Perkin Elmer)) and 10 ul of substrate peptide solution (RSRSSYPAGT, dissolved in water at a concentration of 1 mM), Reactions were maintained for 10 min at 30° C. The reactions were quenched with 100 ul of 0.75% Phosphoric acid, then transferred to and filtered through a Phosphocellulose filter plate (Millipore, MSPH-N6B-50). After washing each well 4 times with 0.75% Phosphoric acid, scintillation fluid (20 uL) was added to each well and the residual radioactivity was measured using a Wallac luminescence counter.
# [2] = 15 μM ATP, read-out: PIM1: IC50 (15 μM ATP)
# T1 sequence (P68400 whole entry): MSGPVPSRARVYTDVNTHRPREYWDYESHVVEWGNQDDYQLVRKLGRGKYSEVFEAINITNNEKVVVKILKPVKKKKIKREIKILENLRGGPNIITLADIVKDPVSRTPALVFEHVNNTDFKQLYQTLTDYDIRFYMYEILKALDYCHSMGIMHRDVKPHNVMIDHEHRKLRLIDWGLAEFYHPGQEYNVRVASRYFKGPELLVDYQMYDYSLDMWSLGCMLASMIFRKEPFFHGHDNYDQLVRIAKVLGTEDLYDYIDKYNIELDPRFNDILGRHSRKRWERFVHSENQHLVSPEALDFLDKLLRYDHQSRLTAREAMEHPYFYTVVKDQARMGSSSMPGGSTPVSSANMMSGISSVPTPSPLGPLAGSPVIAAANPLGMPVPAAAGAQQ
# T1 sequence (P67870 whole entry partner): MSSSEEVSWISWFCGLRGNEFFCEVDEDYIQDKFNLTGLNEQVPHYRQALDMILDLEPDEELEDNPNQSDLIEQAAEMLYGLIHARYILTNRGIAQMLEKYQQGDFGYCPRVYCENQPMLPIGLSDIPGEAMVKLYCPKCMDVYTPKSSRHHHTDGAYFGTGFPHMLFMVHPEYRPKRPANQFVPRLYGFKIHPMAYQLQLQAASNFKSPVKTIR
# recombinant human PIM2, sequence (Q9P1W9 whole entry): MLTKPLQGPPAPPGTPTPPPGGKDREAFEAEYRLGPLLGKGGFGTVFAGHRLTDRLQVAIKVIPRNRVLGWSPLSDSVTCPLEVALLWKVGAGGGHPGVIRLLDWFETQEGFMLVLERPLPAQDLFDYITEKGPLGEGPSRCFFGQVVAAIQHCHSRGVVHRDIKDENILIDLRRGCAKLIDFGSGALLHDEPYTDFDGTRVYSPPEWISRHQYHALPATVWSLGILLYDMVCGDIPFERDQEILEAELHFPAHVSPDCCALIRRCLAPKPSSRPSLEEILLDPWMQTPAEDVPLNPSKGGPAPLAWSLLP
# recombinant PIM-1, sequence (P11309 whole entry): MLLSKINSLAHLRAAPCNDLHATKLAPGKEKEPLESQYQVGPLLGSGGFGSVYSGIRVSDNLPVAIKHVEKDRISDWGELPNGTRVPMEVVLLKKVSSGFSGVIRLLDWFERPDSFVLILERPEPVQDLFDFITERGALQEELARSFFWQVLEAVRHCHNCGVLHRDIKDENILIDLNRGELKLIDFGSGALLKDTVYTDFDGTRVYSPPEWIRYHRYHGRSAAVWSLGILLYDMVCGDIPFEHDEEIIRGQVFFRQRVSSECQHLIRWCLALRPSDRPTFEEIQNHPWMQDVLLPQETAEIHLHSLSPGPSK
Structure (SMILES),inhibition at 0.5 µM (recombinant PIM-1) [%],IC50 (recombinant human CK2) [µM],IC50 (recombinant human PIM2) [µM],also measured
N#Cc1ccc2c(c1)nc(Cl)c1cccn12,-35.4,,,
c1ccc(Nc2nc3cc(-c4nnn[nH]4)ccc3n3cccc23)cc1,75.9,,,IC50 (recombinant PIM-1; [2]): 0.164 µM; IC50 [1]: > 10 µM; IC50 (MV-4-11): > 10 µM
N#Cc1ccc2c(c1)nc(NCc1ccccc1)c1cccn12,-35,,,
c1ccc(CNc2nc3cc(-c4nnn[nH]4)ccc3n3cccc23)cc1,14.4,,,
Fc1ccc(Nc2nc3cc(-c4nnn[nH]4)ccc3n3cccc23)cc1,73.2,,,IC50 (recombinant PIM-1; [2]): 0.365 µM; IC50 [1]: > 10 µM; IC50 (MV-4-11): > 10 µM
COc1cccc(Nc2nc3cc(-c4nnn[nH]4)ccc3n3cccc23)c1,15,,,
COc1ccc(Nc2nc3cc(-c4nnn[nH]4)ccc3n3cccc23)cc1Cl,19.4,,,
COc1ccc(OC)c(Nc2nc3cc(-c4nnn[nH]4)ccc3n3cccc23)c1,10.9,,,
O=C(O)c1ccc2c(c1)nc(Nc1ccccc1)c1cccn12,73.1,,,IC50 (recombinant PIM-1; [2]): 0.13 µM; IC50 [1]: > 10 µM; IC50 (MV-4-11): 0.483 µM
CCN1CCCC1CNc1nc2cc(-c3nnn[nH]3)ccc2n2cccc12 (centres unmarked),81.5,,,IC50 (recombinant PIM-1; [2]): 0.097 µM; IC50 [1]: > 10 µM; IC50 (MV-4-11): > 10 µM
CCOC(=O)c1ccc2c(c1)nc(Nc1ccc(F)c(Cl)c1)c1cccn12,-76.2,,,
O=C(O)c1ccc2c(c1)nc(NCCN1CCCCC1)c1cccn12,98.8,,,IC50 (recombinant PIM-1; [2]): 0.372 µM; IC50 [1]: > 10 µM; IC50 (MV-4-11): > 10 µM
O=C(O)c1ccc2c(c1)nc(NCCN1CCCC1)c1cccn12,72.5,,,IC50 (recombinant PIM-1; [2]): 0.504 µM; IC50 [1]: > 10 µM; IC50 (MV-4-11): > 10 µM
CCN1CCCC1CNc1nc2cc(C(=O)O)ccc2n2cccc12 (centres unmarked),89.7,,,IC50 (recombinant PIM-1; [2]): 0.2 µM; IC50 [1]: > 10 µM; IC50 (MV-4-11): > 10 µM
O=C(O)c1ccc2c(c1)nc(NCCN1CCOCC1)c1cccn12,18.9,,,
CN1CCCC(Nc2nc3cc(C(=O)O)ccc3n3cccc23)C1 (centres unmarked),69.5,,,IC50 (recombinant PIM-1; [2]): 0.33 µM; IC50 [1]: > 10 µM; IC50 (MV-4-11): > 10 µM
CCOC(=O)c1ccc2c(c1)[nH]c(=O)c1cccn12,14,,,
O=C(O)c1ccc2c(c1)[nH]c(=O)c1cccn12,25.6,,,

Structure (SMILES),inhibition at 0.5 µM (recombinant PIM-1) [%],IC50 (recombinant human CK2) [µM],IC50 (recombinant human PIM2) [µM],also measured
N#Cc1ccc2c(c1)[nH]c(=O)c1cccn12,-28.6,,,
O=c1[nH]c2cc(-c3nnn[nH]3)ccc2n2cccc12,41.8,,,
CC(=O)N1CCN(C(=O)c2ccc3c(c2)[nH]c(=O)c2cccn23)CC1,-8.35,,,
CC(C)(C)OC(=O)N1CCN(C(=O)c2ccc3c(c2)[nH]c(=O)c2cccn23)CC1,-27.1,,,
CC(C)(C)OC(=O)N1CCCN(C(=O)c2ccc3c(c2)[nH]c(=O)c2cccn23)CC1,-46.9,,,
CN(C)CCNC(=O)c1ccc2c(c1)[nH]c(=O)c1cccn12,-13.9,,,
NC(=O)c1ccc2c(c1)[nH]c(=O)c1cccn12,-22.5,,,
O=C(c1ccc2c(c1)[nH]c(=O)c1cccn12)N1CCNCC1,-11.8,,,
O=C(c1ccc2c(c1)[nH]c(=O)c1cccn12)N1CCCNCC1,-0.195,,,
CN1CCN(C(=O)c2ccc3c(c2)[nH]c(=O)c2cccn23)CC1,-31.9,,,
O=C(O)c1cccc2c1[nH]c(=O)c1cccn12,,< 5,> 2.5,"IC50 (recombinant PIM-1; Table 5, read-out: PIM1 IC50): > 2.5 µM"
NC(=O)c1cccc2c1[nH]c(=O)c1cccn12,,> 5,> 2.5,"IC50 (recombinant PIM-1; Table 5, read-out: PIM1 IC50): > 2.5 µM"
CCOC(=O)c1cccc2c1[nH]c(=O)c1cncn12,,< 5,> 2.5,
CCOC(=O)c1cccc2c1nc(Nc1ccccc1F)c1cncn12,,< 5,> 2.5,
O=C(O)c1cccc2c1nc(Nc1ccccc1F)c1cncn12,,< 1,> 2.5,
NC(=O)c1cccc2c1nc(Nc1ccccc1F)c1cncn12,,< 0.1,< 0.1,
CCOC(=O)c1cccc2c1[nH]c(=O)c1nccn12,,> 5,> 2.5,

# Now from value to molecule, other results behind:
inhibition at 0.5 µM (recombinant PIM-1) [%],IC50 (recombinant human CK2) [µM],IC50 (recombinant human PIM2) [µM],Structure (SMILES),also measured
-24.5,,,c1ccc(Nc2nc3cc(-c4nnc[nH]4)ccc3n3cccc23)cc1,
67.9,,,OCCNc1nc2cc(-c3nnn[nH]3)ccc2n2cccc12,IC50 (recombinant PIM-1; [2]): 0.273 µM; IC50 [1]: > 10 µM; IC50 (MV-4-11): > 10 µM
63.5,,,CN(C)CCNc1nc2cc(-c3nnn[nH]3)ccc2n2cccc12,IC50 (recombinant PIM-1; [2]): 0.486 µM; IC50 [1]: > 10 µM; IC50 (MV-4-11): > 10 µM
76.5,,,CN(C)CCNc1nc2cc(C(=O)O)ccc2n2cccc12,IC50 (recombinant PIM-1; [2]): 0.173 µM; IC50 [1]: > 10 µM; IC50 (MV-4-11): 0.688 µM
46,,,O=C(O)c1ccc2c(c1)nc(NCCC(F)(F)F)c1cccn12,
35,,,O=C(O)c1ccc2c(c1)nc(NCCO)c1cccn12,
,< 1,< 1,NC(=O)c1cccc2c1nc(Nc1ccccc1Cl)c1cccn12,"IC50 (recombinant PIM-1; Table 5, read-out: PIM1 IC50): < 0.1 µM"
,< 5,> 2.5,O=c1[nH]c2c(-c3nnc[nH]3)cccc2n2cccc12,"IC50 (recombinant PIM-1; Table 5, read-out: PIM1 IC50): > 2.5 µM"
,< 5,< 5,c1cc(-c2nnc[nH]2)c2nc(Nc3nccs3)c3cccn3c2c1,"IC50 (recombinant PIM-1; Table 5, read-out: PIM1 IC50): < 5 µM"
,< 0.1,< 5,COc1ccc(Sc2nc3c(-c4nnc[nH]4)cccc3n3cccc23)cc1,"IC50 (recombinant PIM-1; Table 5, read-out: PIM1 IC50): < 0.1 µM"
,< 0.1,< 0.1,Brc1cccc(Nc2nc3c(-c4nnc[nH]4)cccc3n3cccc23)c1,"IC50 (recombinant PIM-1; Table 5, read-out: PIM1 IC50): < 0.1 µM"
,< 1,< 0.1,Fc1ccc(Nc2nc3c(-c4nnc[nH]4)cccc3n3cccc23)c(Cl)c1,"IC50 (recombinant PIM-1; Table 5, read-out: PIM1 IC50): < 0.1 µM"
,< 1,< 1,c1cc(-c2nnc[nH]2)c2nc(NC3CC3)c3cccn3c2c1,"IC50 (recombinant PIM-1; Table 5, read-out: PIM1 IC50): < 0.1 µM"
,< 5,< 1,c1cc(-c2nnc[nH]2)c2nc(NCC3CC3)c3cccn3c2c1,"IC50 (recombinant PIM-1; Table 5, read-out: PIM1 IC50): < 0.1 µM"
,< 5,< 1,FC(F)(F)CCNc1nc2c(-c3nnc[nH]3)cccc2n2cccc12,"IC50 (recombinant PIM-1; Table 5, read-out: PIM1 IC50): < 0.1 µM"
,> 5,> 2.5,CN(C)CCNc1nc2c(-c3nnc[nH]3)cccc2n2cccc12,"IC50 (recombinant PIM-1; Table 5, read-out: PIM1 IC50): > 2.5 µM"
,< 1,< 1,O=C(O)c1cccc2c1nc(Nc1ccccc1F)c1cccn12,"IC50 (recombinant PIM-1; Table 5, read-out: PIM1 IC50): < 1 µM"
